Marks after values point to notes of the source that are not given here.
Columns and labels:
[1] = test system: A549 cells; assay: MTT test, A549 cells; settings: for IC50: A549, MTT, 24 h; for cytotoxic activity: A549, concentration range 2–100 μg/mL
Protocol: (§1) The next stage of this work was the study of pillar[5]arenes 1–4 ability to inhibit the viability and proliferative activity of embryonic lung epithelial (LEC) and human lung adenocarcinoma (A549) cells using the MTT test.
(§2) Further, the ability of GIS to inhibit the viability and proliferative activity of LEC and A549 cells was studied by the MTT test. […] The average inhibitory concentration (IC50) was calculated for GIS (Table 3). […]
(§3) 1.6. Cytotoxicity of pillar[5]arenes 1–4, GIS and their mixtures on A549 and LEC Cell Lines […]
(§4) activity of LEC cells and A549 cells was investigated using the MTT test according to [2]. A549 – human alveolar adenocarcinoma cell line (ATCC, Rockville, Maryland, USA) and cow embryo lung epithelial (LEC) cells (Animal Cell Culture Collection of Russian Academy of Agricultural Science, Kazan, Russia) were cultured in DMEM (GIBCO, Waltham, MA, USA) medium supplemented with 10% serum and 100 units/mL of penicillin (PanEco, Moscow, Russia) and streptomycin (PanEco, Moscow, Russia) in a humidified atmosphere with 5% CO2 at 37 °C. Cells were seeded in 96‐well plates at a concentration of 10^4 cells/well. After 24 h of cultivation, the medium was removed from the wells and replaced with a fresh one with the addition of the test substances. The volume of the culture medium in the wells was 100
(§5) μL. After 24 h incubation of cells in the presence of substances, the medium in the wells was replaced with a fresh one containing MTT reagent at a final concentration of 0.5 mg/mL. The cells were incubated with MTT for 4 h at 37 °C in an atmosphere of 5% CO2. Then, the medium was aspirated from the wells and 100 μL of dimethyl sulfoxide was added. Probes were incubated at 37 °C for 15 min in the dark for the formazan crystals to dissolve. The optical density of the formazan solution in the wells was measured using a plate reader (BioRad xMarkTM Microplate Spectrophotometer, USA) at a wavelength of 570 nm.
(§6) Three series of experiments were carried out with at least 8 replications for each variant in the series. […]

[2] = test system: A549 cells; assay: MTT assay, combined action of macrocycles with GIS on A549 cells; type: cell-based, human; settings: A549, pillararene 1 × 10^–5 M with GIS 3.47 × 10^–2 M
Protocol: The ability to inhibit the viability and proliferative activity of A549 cells of macrocycles 1–4 in the presence of GIS was studied using the MTT assay. […] The developed approach opens up the possibility of creating pillar[5]arene-based herbicide antidotes. […]
fresh one with the addition of the test substances.
Then, the medium was aspirated from the wells
and 100 μL of dimethyl sulfoxide was added.
the formazan crystals to dissolve. […]
substances. […] After 24 h of incubation cells were […]

[3] = test system: LEC cells; assay: MTT test, LEC cells; settings: for IC50: MTT, 24 h; for cytotoxic activity: concentration range 2–100 μg/mL
Protocol: as §1, §2, §3, §4, §5, §6

[4] = Dynamic light scattering of macrocycle aggregates in water; type: physicochemical; settings: H2O, 298 K
Protocol: The next stage of the work was the study of aggregation properties of both previously synthesized ester derivatives of amino acids 1 and 2, and macrocyclic betaine derivatives 3 and 4 by dynamic light scattering (DLS). The study was carried out in water in the 1 × 10^–6–1 × 10^–4 M concentration range (Figures S11–S22). The size of associates increases with decreasing macrocycle 1 concentration in solution (Table 1). A different pattern is observed for betaine derivative 3. Thus, the particles become coarser, and the polydispersity index (PDI) of the systems increased with an increase in compound 3 concentration, which is probably due to the formation of β-sheets by oligopeptide substituents. The presence of two oppositely charged fragments in one substituent leads to the fact that compound 3 becomes similar to surfactant molecules in terms of its aggregation properties.

[5] = target: DNA from salmon sperm; assay: UV-Vis spectrophotometric titration, association with DNA from salmon sperm; type: binding; settings: 1:1 complex, Tris-HCl buffer pH 7.44, CDNA 2.5 × 10^–7 M, BindFit
Protocol: The interaction of GIS with a series of synthesized pillar[5]arenes 1–4 and DNA was studied by UV-Vis spectroscopy. UV-Vis spectroscopy is a universal method to study the complex properties of synthetic receptors. The interaction of GIS with DNA from salmon sperm was initially studied (Figure 5). DNA from salmon sperm was chosen as a model substrate due to its relatively low molecular weight and small size. The experiments were carried out in a Tris-HCl buffer system (pH = 7.44).
The association constants were determined by spectrophotometric titration to quantify the interaction of DNA with GIS. The UV-Vis spectra of the DNA–GIS system were recorded in such a way that the DNA concentration remained constant (2.5 × 10^–7 M), and the herbicide concentration ratio increased from 1:0.3 to 1:10 (Figure 5b). The obtained experimental data were processed by the BindFit program. The association constant of a 1:1 complex was calculated (Figure S23). The logarithm of the association constant of DNA with GIS was determined as lgKa = 4.92. […] However, in this case, the association constant of the complexes was determined with a large error.
Further, the interaction of macrocycles 1–4 with the DNA from salmon sperm in Tris-HCl was studied by UV-Vis spectroscopy. […] The association constant of compound 4-DNA complex was determined by spectrophotometric titration. […] The logarithm of the association constant of pillar[5]arene 4 with the DNA was determined as lgKa (4–DNA) = 5.24.
The association constant of compound 1-DNA complex was also determined by spectrophotometric titration (Figure S25b). The logarithm of the association constant of pillar[5]arene 1 with DNA was determined as lgKa(1–DNA) = 4.88 (Figure S27). […]
buffer solution. The UV spectra of the solutions were then recorded. The stability constant of complex was calculated by Bindfit. […]
volume of 3 mL with Tris‐HCl buffer solution. The UV spectra of the solutions were then recorded. The stability constant of each complex was calculated by Bindfit. […]
stability constant of complex was calculated by Bindfit. […]

## CCOC(=O)CNC(=O)CNC(=O)C[N+](C)(C)CCCNC(=O)COc1cc2c(OCC(=O)NCCC[N+](C)(C)CC(=O)NCC(=O)NCC(=O)OCC)cc1Cc1cc(OCC(=O)NCCC[N+](C)(C)CC(=O)NCC(=O)NCC(=O)OCC)c(cc1OCC(=O)NCCC[N+](C)(C)CC(=O)NCC(=O)NCC(=O)OCC)Cc1cc(OCC(=O)NCCC[N+](C)(C)CC(=O)NCC(=O)NCC(=O)OCC)c(cc1OCC(=O)NCCC[N+](C)(C)CC(=O)NCC(=O)NCC(=O)OCC)Cc1cc(OCC(=O)NCCC[N+](C)(C)CC(=O)NCC(=O)NCC(=O)OCC)c(cc1OCC(=O)NCCC[N+](C)(C)CC(=O)NCC(=O)NCC(=O)OCC)Cc1cc(OCC(=O)NCCC[N+](C)(C)CC(=O)NCC(=O)NCC(=O)OCC)c(cc1OCC(=O)NCCC[N+](C)(C)CC(=O)NCC(=O)NCC(=O)OCC)C2.[Br-].[Br-].[Br-].[Br-].[Br-].[Br-].[Br-].[Br-].[Br-].[Br-] [Compound 1]
[1]
  IC50: >100 * μg/mL
  cytotoxic activity: did not show statistically significant cytotoxic activity
[2]
  change of toxicity on combined action with GIS: slight decrease in toxicity
[3]
  IC50: >100 * μg/mL
  cytotoxic activity: did not show statistically significant cytotoxic activity
[4]; 1 × 10^–4 M
  polydispersity index (PDI): 0.37
  size of aggregates d: 249 ± 17 nm
[4]; 1 × 10^–5 M
  polydispersity index (PDI): 0.35
  size of aggregates d: 286 ± 57 nm
[4]; 1 × 10^–6 M
  polydispersity index (PDI): 0.39
  size of aggregates d: 441 ± 81 nm
[5]
  lgKa, logarithm of the association constant with DNA: 4.88

## C[N+](C)(CCCNC(=O)COc1cc2c(OCC(=O)NCCC[N+](C)(C)CC(=O)NCC(=O)NCC(=O)[O-])cc1Cc1cc(OCC(=O)NCCC[N+](C)(C)CC(=O)NCC(=O)NCC(=O)[O-])c(cc1OCC(=O)NCCC[N+](C)(C)CC(=O)NCC(=O)NCC(=O)[O-])Cc1cc(OCC(=O)NCCC[N+](C)(C)CC(=O)NCC(=O)NCC(=O)[O-])c(cc1OCC(=O)NCCC[N+](C)(C)CC(=O)NCC(=O)NCC(=O)[O-])Cc1cc(OCC(=O)NCCC[N+](C)(C)CC(=O)NCC(=O)NCC(=O)[O-])c(cc1OCC(=O)NCCC[N+](C)(C)CC(=O)NCC(=O)NCC(=O)[O-])Cc1cc(OCC(=O)NCCC[N+](C)(C)CC(=O)NCC(=O)NCC(=O)[O-])c(cc1OCC(=O)NCCC[N+](C)(C)CC(=O)NCC(=O)NCC(=O)[O-])C2)CC(=O)NCC(=O)NCC(=O)[O-] [Compound 3]
[1]
  IC50: >100 * μg/mL
  cytotoxic activity: did not show statistically significant cytotoxic activity
[2]
  change of toxicity on combined action with GIS: No significant differences
[3]
  IC50: >100 * μg/mL
  cytotoxic activity: did not show statistically significant cytotoxic activity
[4]; 1 × 10^–4 M
  polydispersity index (PDI): 0.55
  size of aggregates d: 565 ± 12 nm
[4]; 1 × 10^–5 M
  polydispersity index (PDI): 0.43
  size of aggregates d: 290 ± 38 nm
[4]; 1 × 10^–6 M
  polydispersity index (PDI): 0.39
  size of aggregates d: 276 ± 63 nm

## CC(C)N.O=C(O)CNCP(=O)(O)O [GIS, glyphosate isopropylamine salt, reference compound]
[1]; A549
  concentration at which cytotoxic effect was recorded: ≥ 10000 µg/mL
  concentration without ability to reduce viability: ≤ 5000 µg/mL
[1]
  IC50: 10,180 μg/mL
[3]
  concentration at which cytotoxic effect was recorded: ≥ 10000 µg/mL
  concentration without ability to reduce viability: ≤ 5000 µg/mL
  IC50: 11,430 μg/mL
[5]
  lgKa, logarithm of the association constant with DNA: 4.92
